Test results reported in US8329913B2, “Carbazole derivative, solvate thereof, or pharmaceutically acceptable salt thereof” (Zeria Pharmaceutical Co., Ltd., priority 2004, dated 2012).

Biological target: T1, human PPARα (Homo sapiens, UniProt Q07869)
T1 construct: 1.6 kb of DNA fragment including human PPARα gene was collected from the gel; expressed in transfected cells; host or cells: CV-1 cells, transient transfection with pCI-hPPARa, pCI-hRXRa and the reporter pGL3-PPRE3-TK
T1 sequence (Q07869 1-468): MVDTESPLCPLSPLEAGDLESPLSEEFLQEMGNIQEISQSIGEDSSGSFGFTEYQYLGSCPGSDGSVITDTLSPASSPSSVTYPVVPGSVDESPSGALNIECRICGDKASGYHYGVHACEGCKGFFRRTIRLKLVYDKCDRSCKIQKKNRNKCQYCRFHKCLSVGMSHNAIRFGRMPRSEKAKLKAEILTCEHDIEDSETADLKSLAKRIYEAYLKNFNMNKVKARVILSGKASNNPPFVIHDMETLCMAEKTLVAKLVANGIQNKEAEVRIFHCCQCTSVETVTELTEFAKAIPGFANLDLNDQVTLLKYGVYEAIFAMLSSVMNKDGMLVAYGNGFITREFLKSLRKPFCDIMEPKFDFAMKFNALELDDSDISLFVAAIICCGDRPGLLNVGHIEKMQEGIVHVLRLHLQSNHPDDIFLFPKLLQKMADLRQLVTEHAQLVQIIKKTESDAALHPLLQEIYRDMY
T1 sequence (P19793 1-462 partner): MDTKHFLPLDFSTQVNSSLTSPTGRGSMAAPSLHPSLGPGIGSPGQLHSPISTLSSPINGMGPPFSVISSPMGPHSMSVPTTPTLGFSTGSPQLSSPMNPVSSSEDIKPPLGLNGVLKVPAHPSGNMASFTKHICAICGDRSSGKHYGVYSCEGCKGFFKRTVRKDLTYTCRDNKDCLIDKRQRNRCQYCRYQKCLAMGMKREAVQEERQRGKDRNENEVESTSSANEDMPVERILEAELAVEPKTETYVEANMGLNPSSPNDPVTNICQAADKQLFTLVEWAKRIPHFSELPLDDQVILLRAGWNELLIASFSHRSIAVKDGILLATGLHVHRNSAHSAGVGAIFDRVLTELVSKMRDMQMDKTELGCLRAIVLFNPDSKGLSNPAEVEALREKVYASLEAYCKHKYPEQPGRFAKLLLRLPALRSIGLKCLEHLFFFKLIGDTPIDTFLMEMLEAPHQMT
Assay: Human PPARα agonist assay (luciferase reporter in transfected CV-1 cells)
Assay type: cell-based
Conditions: at 1 μM test compound alone; 100% = 1 μM stimulant (GW7647) only; CV-1 cells expressing human PPARα and RXRα
Experimental: CV-1 cells (96 well plate), where human PPARα and RXRα has expressed in the transient transfection of reporter plasmid (see reference 6a) were washed once with PBS (100 μL/well), and then supplemented with 100 μL/well of DMEM medium including 10% of fetal bovine serum to which test compounds at final concentrations of 10 nM, 30 nM, 100 nM, 300 nM, 1 μM, and 3 μM, as well as GW7647 (not limited to GW7647 shown as an example, but may be any PPARα agonist) at a final concentration of 1 nM as a stimulant were added, and incubated in a 5% CO2 incubator at 37° C. for 24 hours. After removing the medium, the CV-1 cells were washed once with PBS (100 μL/well), and supplemented with 60 μL/well of 1× Passive Lysis Buffer (manufactured by Promega Corporation). The CV-1 cells were incubated at room temperature for 30 minutes, stirred, and then by using Dual-Luciferase Reporter Assay System (manufactured by Promega Corporation), luciferase activities of firefly and renilla were measured using 1420 ARVO Multilabel Counter (manufactured by Wallac Oy). Also, the same experiments as that described above were respectively carried out for the cases where only the above-mentioned stimulant (10 nM, 100 nM, 1 μM) were used, where only the above-mentioned test compounds were used, or where neither was used (nonsupplemented), and luciferase activities of firefly and renilla were measured. Values corrected by dividing the firefly luciferase activities by the renilla luciferase activities were calculated as specific activities and used for evaluations. […]
Also, human PPARα agonist activities of the test compounds were evaluated by using a percentage (activity) where the specific activity when nonsupplemented is regarded as 0% and the specific activity in case only 1 μM stimulant was added is regarded as 100%, from the specific activity in case only the test compound is used.
CV-1 cells were cultured in DMEM medium (manufactured by Invitrogen Corporation) including 10% fetal bovine serum (manufactured by Dainippon Pharmaceutical Co., Ltd.) in 225T-Flask (manufactured by Corning Costar). The cells were detached by 0.5 g/L trypsin-0.2 g/L EDTA (ethylene diamine tetra-acetic acid) (manufactured by Invitrogen Corporation), and then suspended in the DMEM medium including 10% fetal bovine serum to a cell concentration of 2×10^5 cells/mL. Thereafter, the cells were seeded into 96 well plate at 2×10^4 cells/0.1 mL/well, incubated in the CO2 incubator at 37° C. overnight, and then the plasmids prepared by the above-mentioned reference 2a, reference 3a, and reference 4a were transfected into cells by using a lipofectamine reagent (manufactured by Invitrogen Corporation) according to the attached manual.
Namely, after CV-1 cells were cultured overnight, the cells were washed with PBS (100 μL/well). Thereafter the cells were incubated for 5 hours at 37° C./5% CO2 in the MEM medium (manufactured by Invitrogen Corporation) including 430 ng/mL of human PPARα expression plasmid (pCI-hPPARa) prepared by the reference 2a, 430 ng/mL of human RXRα expression plasmid (pCI-hRXRa) prepared by the reference 3a, and 140 ng/mL of the reporter plasmid (pGL3-PPRE3-TK) prepared by the reference 4a, 10 ng/mL of phRL-TK vector (manufactured by Promega Corporation) and 2 μL/mL of lipofectamine.

Row | Structure (SMILES) | Human PPARα agonist activities, Activity % (at 1 μM) [%]
1 | COc1cc(Cn2c3ccccc3c3c(OC(C)C(=O)O)cccc32)ccc1OCc1nc(-c2ccccc2)oc1C (racemic) [Example 4, (±)-2-{9-[3-methoxy-4-((5-methyl-2-phenyl-oxazole-4-yl)methoxy)-benzyl]-9H-carbazole-4-yloxy}propionic acid] | 21
2 | CCC(Oc1cccc2c1c1ccccc1n2Cc1ccc(OCc2nc(-c3ccccc3)oc2C)c(OC)c1)C(=O)O (racemic) [Example 5, (±)-2-{9-[3-methoxy-4-((5-methyl-2-phenyl-oxazole-4-yl)methoxy)-benzyl]-9H-carbazole-4-yloxy}butyric acid] | 27
3 | COc1cc(Cn2c3ccccc3c3c(OCCC(C)C(=O)O)cccc32)ccc1OCc1nc(-c2ccccc2)oc1C (racemic) [Example 27, (±)-4-{9-[3-methoxy-4-((5-methyl-2-phenyl-oxazole-4-yl)methoxy)-benzyl]-9H-carbazole-4-yloxy}-2-methyl-butyric acid] | 23
4 | COc1cc(Cn2c3ccccc3c3c(OC(C)C(=O)[O-])cccc32)ccc1OCc1nc(-c2ccccc2)oc1C.[Na+] (racemic) [Example 30] | 35
5 | COc1cc(Cn2c3ccccc3c3c(OCCC(C)C(=O)[O-])cccc32)ccc1OCc1nc(-c2ccccc2)oc1C.[Na+] (racemic) [Example 37] | 20
6 | COc1cc(Cn2c3ccccc3c3c(OC(C)(C)C(=O)O)cccc32)ccc1OCc1nc(-c2ccccc2)oc1C [Example 3, 2-{9-[3-methoxy-4-((5-methyl-2-phenyl-oxazole-4-yl)methoxy)-benzyl]-9H-carbazole-4-yloxy}-2-methyl-propionic acid] | 43
7 | COc1cc(Cn2c3ccccc3c3c(OC(C)(C)C(=O)O)cccc32)ccc1OCc1nc(-c2ccco2)oc1C [Example 7, 2-{9-[4-((2-(furan-2-yl)-5-methyl-oxazole-4-yl)methoxy)-3-methoxy-benzyl]-9H-carbazole-4-yloxy-}2-methyl-propionic acid] | 39
8 | COc1cc(Cn2c3ccccc3c3c(OC(C)(C)C(=O)O)cccc32)ccc1OCc1nc(-c2cccs2)oc1C [Example 8, 2-{9-[3-methoxy-4-((5-methyl-2-(thiophene-2-yl)-oxazole-4-yl)methoxy)-benzyl]-9H-carbazole-4-yloxy}-2-methyl-propionic acid] | 60
9 | COc1cc(Cn2c3ccccc3c3c(OC(C)(C)C(=O)O)cccc32)ccc1OCc1nc(-c2ccncc2)oc1C [Example 9, 2-{9-[3-methoxy-4-((5-methyl-2-(pyridine-4-yl)-oxazole-4-yl)methoxy)-benzyl]-9H-carbazole-4-yloxy}-2-methyl-propionic acid] | 27
10 | Cc1oc(-c2ccccc2)nc1COc1ccc(Cn2c3ccccc3c3c(OC(C)(C)C(=O)O)cccc32)cc1 [Example 13, 2-methyl-2-{9-[4-((5-methyl-2-phenyl-oxazole-4-yl)methoxy)-benzyl]-9H-carbazole-4-yloxy}propionic acid] | 37
11 | COc1cc(Cn2c3ccccc3c3c(OC(C)(C)C(=O)O)cccc32)ccc1OCc1nc(-c2ccccc2)sc1C [Example 15, 2-{9-[3-methoxy-4-((5-methyl-2-phenyl-thiazole-4-yl)methoxy)-benzyl]-9H-carbazole-4-yloxy}-2-methyl-propionic acid] | 73
12 | COc1cc(Cn2c3ccccc3c3c(OC(C)(C)C(=O)O)cccc32)ccc1OCc1sc(-c2ccccc2)nc1C [Example 16, 2-{9-[3-methoxy-4-((4-methyl-2-phenyl-thiazole-5-yl)methoxy)-benzyl]-9H-carbazole-4-yloxy}-2-methyl-propionic acid] | 56
